Values after ≈ are worked out from the molar mass of the structure shown.

The test system of test [1] is Mycobacterium tuberculosis. The test is described as follows: Antitubercular activity against Mycobacterium tuberculosis H37Rv at 6.25 ug/mL after 4 days by MABA assay. It counts as functional. Conditions: 96 h. Background: Resazurin is reduced to fluorescent resorufin, in cell work by metabolically active cells.
Test [2] has as its system Mycobacterium tuberculosis. Kind of test: Antitubercular activity against Mycobacterium tuberculosis H37Rv after 4 days by MABA assay. It counts as functional. To be noted: 96 h.
A further test relates to Vero. Kind of test: Cytotoxicity against african green monkey Vero cells. The class given is cell-based. To be noted: Chlorocebus sabaeus.
The nature of test [3]: Selectivity index, ratio of IC50 for african green monkey Vero cells to MIC for Mycobacterium tuberculosis H37Rv. It counts as functional.

In the case of `CCOC(=O)C1=C(C)N(c2ccccc2)C(C)=C(C(=O)OCC)C1c1cn(-c2ccccc2)nc1-c1ccccc1`, in test [1], the inhibition (commonly the drop in the measured response relative to a control, in per cent) at 6.25 µg/mL worked out at 96%. Besides, it took 1.56 µg/mL (≈ 2.85 µM) to inhibit growth in test [2] (MIC). Besides, the IC50 (usually the concentration at which inhibition is half-maximal) with Vero is above 10 µg/mL. Besides, the “Selectivity Index” value in test [3] is above 6.4.

`CCOC(=O)C1=C(C)N(c2ccccc2C)C(C)=C(C(=O)OCC)C1c1cn(-c2ccccc2)nc1-c1ccccc1` came in with an inhibition at 6.25 µg/mL in test [1] of 95%. Also, 3.13 µg/mL (≈ 5.57 µM) was the least that counted as inhibitory in test [2] (MIC). The compound also had an IC50 with Vero above 10 µg/mL. For the same compound, the “Selectivity Index” value in test [3] is reported as above 3.2.

`CCOC(=O)C1=C(C)N(c2cccc(C)c2)C(C)=C(C(=O)OCC)C1c1cn(-c2ccccc2)nc1-c1ccccc1` displayed an inhibition at 6.25 µg/mL in test [1] of 98%. In test [2], the MIC – broadly, the smallest concentration in the dilution series that meets the test's criterion for growth inhibition – worked out at 1.56 µg/mL (≈ 2.78 µM). The compound also registered an IC50 with Vero above 10 µg/mL. The “Selectivity Index” value in test [3] was above 6.4.

For the compound `CCOC(=O)C1=C(C)N(c2ccc(C)cc2)C(C)=C(C(=O)OCC)C1c1cn(-c2ccccc2)nc1-c1ccccc1`, at 6.25 µg/mL the inhibition in test [1] was 48%. The compound also gave an MIC in test [2] of 48 µg/mL (≈ 85.5 µM).

With `CCOC(=O)C1=C(C)N(c2ccccc2Cl)C(C)=C(C(=O)OCC)C1c1cn(-c2ccccc2)nc1-c1ccccc1`, in test [1], 6.25 µg/mL produced 100% inhibition. Also, inhibition of growth in test [2] (MIC) required 0.02 µg/mL (≈ 0.0344 µM). In the test with Vero, this compound showed an IC50 above 10 µg/mL. In test [3], the “Selectivity Index” value was above 500.

In test [1], `CCOC(=O)C1=C(C)N(c2cccc(Cl)c2)C(C)=C(C(=O)OCC)C1c1cn(-c2ccccc2)nc1-c1ccccc1` returned an inhibition at 6.25 µg/mL of 97%. The compound also had an MIC in test [2] of 1.56 µg/mL (≈ 2.68 µM). The compound further yielded an IC50 in the test with Vero of 7.08 µg/mL (≈ 12.2 µM). For the same compound, the “Selectivity Index” value in test [3] was 4.5.

Take `CCOC(=O)C1=C(C)N(c2ccc(Cl)cc2)C(C)=C(C(=O)OCC)C1c1cn(-c2ccccc2)nc1-c1ccccc1`: the inhibition at 6.25 µg/mL in test [1] was found to be 74%.

In the case of `CCOC(=O)C1=C(C)N(c2ccccc2OC)C(C)=C(C(=O)OCC)C1c1cn(-c2ccccc2)nc1-c1ccccc1`, the inhibition at 6.25 µg/mL in test [1] is 39%.

Turning to `CCOC(=O)C1=C(C)N(c2cccc(OC)c2)C(C)=C(C(=O)OCC)C1c1cn(-c2ccccc2)nc1-c1ccccc1`, in test [1], the inhibition at 6.25 µg/mL stood at 55%.

Regarding `CCOC(=O)C1=C(C)N(c2ccc(OC)cc2)C(C)=C(C(=O)OCC)C1c1cn(-c2ccccc2)nc1-c1ccccc1`, the inhibition at 6.25 µg/mL in test [1] turned out to be 33%.

`CC(=O)C1=C(C)N(c2ccccc2)C(C)=C(C(C)=O)C1c1cn(-c2ccccc2)nc1-c1ccccc1` gave an inhibition at 6.25 µg/mL in test [1] of 48%.

In the case of `CC(=O)C1=C(C)N(c2ccccc2C)C(C)=C(C(C)=O)C1c1cn(-c2ccccc2)nc1-c1ccccc1`, the inhibition at 6.25 µg/mL in test [1] came to 97%. Also, 3.13 µg/mL (≈ 6.24 µM) was the least that counted as inhibitory in test [2] (MIC). In the test with Vero, this compound gave an IC50 above 10 µg/mL. Moreover, in test [3], the “Selectivity Index” value was above 3.2.

For `CC(=O)C1=C(C)N(c2cccc(C)c2)C(C)=C(C(C)=O)C1c1cn(-c2ccccc2)nc1-c1ccccc1`, the inhibition at 6.25 µg/mL in test [1] turned out to be 98%. This compound gave an MIC in test [2] of 6.25 µg/mL (≈ 12.5 µM). The compound also came in with an IC50 with Vero above 10 µg/mL. The “Selectivity Index” value in test [3] is listed as above 1.6.

As to `CC(=O)C1=C(C)N(c2ccc(C)cc2)C(C)=C(C(C)=O)C1c1cn(-c2ccccc2)nc1-c1ccccc1`, 6.25 µg/mL produced 34% inhibition in test [1].

Consider `CC(=O)C1=C(C)N(c2ccccc2Cl)C(C)=C(C(C)=O)C1c1cn(-c2ccccc2)nc1-c1ccccc1`, for which the inhibition at 6.25 µg/mL in test [1] is 59%.

In test [1], `CC(=O)C1=C(C)N(c2cccc(Cl)c2)C(C)=C(C(C)=O)C1c1cn(-c2ccccc2)nc1-c1ccccc1` returned an inhibition at 6.25 µg/mL of 76%.

Take `CC(=O)C1=C(C)N(c2ccc(Cl)cc2)C(C)=C(C(C)=O)C1c1cn(-c2ccccc2)nc1-c1ccccc1`: in test [1], testing at 6.25 µg/mL gave an inhibition of 29%.

Turning to `COc1ccccc1N1C(C)=C(C(C)=O)C(c2cn(-c3ccccc3)nc2-c2ccccc2)C(C(C)=O)=C1C`, the inhibition at 6.25 µg/mL in test [1] was determined as 25%.

`COc1cccc(N2C(C)=C(C(C)=O)C(c3cn(-c4ccccc4)nc3-c3ccccc3)C(C(C)=O)=C2C)c1`: 6.25 µg/mL produced 77% inhibition in test [1].

In test [1], `COc1ccc(N2C(C)=C(C(C)=O)C(c3cn(-c4ccccc4)nc3-c3ccccc3)C(C(C)=O)=C2C)cc1` came in with an inhibition at 6.25 µg/mL of 69%.

In turn, `NNC(=O)c1ccncc1` [ISONIAZID] gave an MIC in test [2] of 0.03 µg/mL (≈ 0.219 µM).
